In ChEMBL document CHEMBL3885861, “Open TG-GATES”:

Species on record: Rattus norvegicus
Assay: Open TG-GATES - Regimen: Single
Format: toxicity, organism-based, Sprague-Dawley
Set-up: regimen Single, gender Male, age 6 weeks
Conditions: in vivo, po, 20 mg/kg, route gavage, dose level Middle; for Eos / Fbg / Hb / Ht / Lym / MCH / MCHC / MCV / Mono / Neu / PT / Plat / RBC / WBC / APTT / Bas: tissue Blood; for KIDNEY_L / KIDNEY_R / KIDNEY_TOTAL: tissue Kidney; for LIVER: tissue Liver; for ALT / AST / BUN / CRE / Cl / DBIL / GLC / IP / LDH / Na / RALB / TBIL / TC / TG / TP / gamma-GTP: tissue Plasma

## CC/C(=C(\c1ccccc1)c1ccc(OCCN(C)C)cc1)c1ccccc1 [TAMOXIFEN]
3 h
  Eos: 1%
  Fbg: 267 mg/dL
  Hb: 13 g/dL
  Ht: 39.3%
  Lym: 78%
  MCH: 21 pg
  MCHC: 33%
  MCV: 63.8 fL
  Mono: 4.2%
  Neu: 16.6%
  PT: 12.1 s
  Plat: 116.7 x10_4/uL
  RBC: 616 x10_4/ul
  WBC: 103.9 x10_2/uL
  KIDNEY_L: 0.8 g
  KIDNEY_R: 0.8 g
  KIDNEY_TOTAL: 1.6 g
  LIVER: 8.4 g
  ALT: 51 IU/L
  AST: 81.2 IU/L
  BUN: 10.4 mg/dL
  CRE: 0.2 mg/dL
  Cl: 106.6 meq/L
  DBIL: 0.016 mg/dL
  GLC: 178.8 mg/dL
  IP: 9.8 mg/dL
  LDH: 56 IU/L
  Na: 140 meq/L
  RALB: 2.6 g/dL
  TBIL: 0.052 mg/dL
  TC: 91.8 mg/dL
  TG: 86 mg/dL
  TP: 5.5 g/dL
  gamma-GTP: 1.2 IU/L
6 h
  TERMINAL_BW: 192.3 g
  APTT: 18.2 s
  Bas: 0%
  Eos: 1.2%
  Fbg: 269.4 mg/dL
  Hb: 13.2 g/dL
  Ht: 39.4%
  Lym: 73.8%
  MCH: 21.3 pg
  MCHC: 33.5%
  MCV: 63.7 fL
  Mono: 4.2%
  Neu: 20.4%
  PT: 12.1 s
  Plat: 107 x10_4/uL
  RBC: 618.2 x10_4/ul
  WBC: 64.9 x10_2/uL
  KIDNEY_L: 0.8 g
  KIDNEY_R: 0.8 g
  KIDNEY_TOTAL: 1.6 g
  LIVER: 7.7 g
  ALT: 43.4 IU/L
  AST: 82.8 IU/L
  BUN: 8 mg/dL
  CRE: 0.2 mg/dL
  Cl: 109 meq/L
  DBIL: 0.008 mg/dL
  GLC: 175.8 mg/dL
  IP: 10.7 mg/dL
  LDH: 92.4 IU/L
  Na: 141.8 meq/L
  RALB: 2.6 g/dL
  TBIL: 0.048 mg/dL
  TC: 82.2 mg/dL
  TG: 45.4 mg/dL
  TP: 5.4 g/dL
  gamma-GTP: 1.4 IU/L
9 h
  TERMINAL_BW: 194.8 g
  APTT: 16.1 s
  Bas: 0%
  Eos: 1%
  Fbg: 252.6 mg/dL
  Hb: 12.7 g/dL
  Ht: 38%
  Lym: 74.4%
  MCH: 21.6 pg
  MCHC: 33.3%
  MCV: 64.9 fL
  Mono: 2.8%
  Neu: 21.6%
  PT: 12.4 s
  Plat: 114.1 x10_4/uL
  RBC: 585.4 x10_4/ul
  WBC: 73.4 x10_2/uL
  KIDNEY_L: 0.8 g
  KIDNEY_R: 0.8 g
  KIDNEY_TOTAL: 1.7 g
  LIVER: 7.1 g
  ALT: 40 IU/L
  AST: 75.8 IU/L
  BUN: 8.6 mg/dL
  CRE: 0.2 mg/dL
  Cl: 107.6 meq/L
  DBIL: 0.008 mg/dL
  GLC: 178.8 mg/dL
  IP: 11 mg/dL
  LDH: 46 IU/L
  Na: 141.4 meq/L
  RALB: 2.4 g/dL
  TBIL: 0.042 mg/dL
  TC: 61.8 mg/dL
  TG: 35.4 mg/dL
  TP: 5.1 g/dL
  gamma-GTP: 1 IU/L
24 h
  TERMINAL_BW: 194.8 g
  APTT: 16.8 s
  Bas: 0%
  Eos: 1.2%
  Fbg: 232.8 mg/dL
  Hb: 12.7 g/dL
  Ht: 38.5%
  Lym: 79%
  MCH: 21.3 pg
  MCHC: 33%
  MCV: 64.5 fL
  Mono: 2.4%
  Neu: 17.2%
  PT: 12.8 s
  Plat: 117 x10_4/uL
  RBC: 597.6 x10_4/ul
  WBC: 83.2 x10_2/uL
  KIDNEY_L: 0.9 g
  KIDNEY_R: 0.9 g
  KIDNEY_TOTAL: 1.8 g
  LIVER: 8.7 g
  ALT: 52.2 IU/L
  AST: 79.2 IU/L
  BUN: 13 mg/dL
  CRE: 0.2 mg/dL
  Cl: 109.6 meq/L
  DBIL: 0.016 mg/dL
  GLC: 186 mg/dL
  IP: 8.3 mg/dL
  LDH: 64 IU/L
  Na: 143.2 meq/L
  RALB: 2.6 g/dL
  TBIL: 0.038 mg/dL
  TC: 60.2 mg/dL
  TG: 84.6 mg/dL
  TP: 5.4 g/dL
  gamma-GTP: 1.4 IU/L
